pIC50: −log10 of the molar value.

From ChEMBL document CHEMBL3102733, “The effect of chain length and unsaturation on Mtb Dxr inhibition and antitubercular killing activity of FR900098 analogs” (Bioorg Med Chem Lett, 2014) come the findings set out here.

The subject of test [1] is Mycobacterium tuberculosis. Briefly: Antimycobacterial activity against Mycobacterium tuberculosis H37Rv assessed as growth inhibition in presence of 7H9 nutrient-rich media. It is filed as functional.
Test [2] has as its system Mycobacterium tuberculosis. Briefly: Antimycobacterial activity against Mycobacterium tuberculosis H37Rv assessed as growth inhibition in presence of GAST minimal media. The test is classed as functional.
The target in test [3] is T1, 1-deoxy-D-xylulose 5-phosphate reductoisomerase (Mycobacterium tuberculosis) (UniProt P9WNS1).
T1 sequence (whole entry): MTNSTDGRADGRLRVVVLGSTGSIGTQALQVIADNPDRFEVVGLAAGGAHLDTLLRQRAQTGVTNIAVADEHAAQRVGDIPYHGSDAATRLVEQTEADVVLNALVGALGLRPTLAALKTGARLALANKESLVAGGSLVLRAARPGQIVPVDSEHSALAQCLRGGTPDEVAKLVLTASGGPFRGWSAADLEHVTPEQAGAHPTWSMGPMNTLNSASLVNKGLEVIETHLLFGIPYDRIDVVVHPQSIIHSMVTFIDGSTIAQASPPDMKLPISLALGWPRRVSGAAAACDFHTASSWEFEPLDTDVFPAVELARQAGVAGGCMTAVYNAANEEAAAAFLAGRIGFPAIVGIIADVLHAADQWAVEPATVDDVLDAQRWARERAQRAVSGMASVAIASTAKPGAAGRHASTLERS
Briefly: Inhibition of Mycobacterium tuberculosis Dxr at 100 uM.

Test [4] deals with T2, 1-deoxy-D-xylulose 5-phosphate reductoisomerase (Mycobacterium tuberculosis, UniProt P9WNS1).
T2 sequence (P9WNS1 whole entry): T1 sequence (whole entry)
Put plainly: Inhibition of Mycobacterium tuberculosis Dxr.

On to `CC(=O)N(O)CCP(=O)([O-])O.[Na+]`, for which the MIC in test [1] is more than 200 µg/mL; in test [2] it was 150 µg/mL. This compound had an inhibition in test [3] of 74%.
Consider `CC(=O)N(O)CCCCP(=O)(OCOC(=O)C(C)(C)C)OCOC(=O)C(C)(C)C`, for which the MIC is not below 200 µg/mL in test [1] and 150 µg/mL in test [2].
On to `CCOP(=O)(CCCCN(O)C(C)=O)OCC`, for which the MIC is more than 200 µg/mL in test [1] and 75 µg/mL in test [2].
In the case of `CC(=O)N(O)CCCP(=O)(O)O` [FR-900098], the pIC50 in test [4] was 5.62.
As to `CC(=O)N(O)CCCCP(=O)([O-])O.[Na+]`, the minimal inhibitory concentration (MIC) in test [1] and in test [2] was more than 200 µg/mL in each case. For the same compound, the inhibition in test [3] is 80%.
As for `CCOP(=O)(/C=C/CN(O)C(C)=O)OCC`, the MIC was more than 200 µg/mL in test [1] and 150 µg/mL in test [2].
Consider `CC(=O)N(O)CCCCCP(=O)([O-])O.[Na+]`, for which the MIC in test [1] and in test [2] was more than 200 µg/mL each time. In test [3], this compound showed an inhibition of 86%.
With `CC(=O)N(O)C/C=C/P(=O)([O-])O.[Na+]`, the MIC was more than 200 µg/mL in test [1] and 150 µg/mL in test [2]. Moreover, in test [4], the pIC50 is 5.97.
In the case of `CC(=O)N(O)C/C=C/P(=O)(OCOC(=O)C(C)(C)C)OCOC(=O)C(C)(C)C`, the results for the MIC in test [1] and in test [2] were 9.4 µg/mL and 12.5 µg/mL, respectively.
As for `CCOP(=O)(CCN(O)C(C)=O)OCC`, the MIC in test [1] is more than 500 µg/mL.
`CCOP(=O)(CCCCCN(O)C(C)=O)OCC`: the MIC in test [1] was more than 200 µg/mL; in test [2], 200 µg/mL.
As to `CCOP(=O)(CCN(O)C=O)OCC`, the MIC in test [1] is more than 500 µg/mL.

Broadly, the MIC is the lowest concentration found to suppress growth. For orientation: inhibition means the change of the read-out against control, counted positive when it falls. Read a high inhibition as a strong effect. For orientation: pIC50 means the negative decadic logarithm of the IC50, by convention in mol/L. Read a low pIC50 as a large IC50.
